From US20240254123A1, “PYRIDOPYRIMIDINE DERIVATIVES USEFUL AS WEE1 KINASE INHIBITORS” (APREA THERAPEUTICS, INC., priority 2021, published 2024) come the findings set out here.

Where “and” joins values, the source holds several entries; their conditions need not be identical. Equal entries are not always repeated. Where only a bound is given, the exact number is not on record here.

Assay [1] deals with T1, WEE1 (Homo sapiens, UniProt P30291).
T1 construct: Drug treated cells are fixed and stained with propidium iodide (PI); endogenous in cells
In words: Guava flow cytometry cell cycle assay (DNA content per cell, propidium iodide). The assay is classed as cell-based. The following applies: for WEE1 Guava MEC Guava MEC: single agent, unit assumed; for WEE1 Guava MEC with 20 nM GEM: in µM (unit assumed). The text has this: In this example, compounds described herein were subject to an assay that detects changes the phases of the cell cycle upon drug treatment, permitting the identification of drugs that affect cell proliferation in a specific manner. For example, problematic DNA replication causes the percentage of cells in S phase to increase. Thus, quantification of cells in S phase permits identification of drugs that cause defects in DNA replication. Similarly, drugs that selectively defects in progression through G2/M can also be identified. Moreover, synergy between assayed drugs and known cell cycle regulators can be determined, as exemplified by the effect of ATR inhibition when combined with agents that slow DNA replication, which causes replication fork collapse into DSBs and complete loss of DNA synthesis. Two novel drugs can also be combined to quantify synergistic effects on specific cell cycle phases.
The assay operates by the quantification of DNA content per cell by flow cytometry. Cells are assessed for effects on cell cycle using a Guava EasyCyte™ flow cytometer (Austin, TX). Drug treated cells are fixed and stained with propidium iodide (PI) and resuspended in phosphate-buffered saline containing the PI staining buffer. During flow cytometry, PI is excited at 528 nm and is detected in a 610/20 bandpass. Readout of the […] is optical density of DNA-staining dye. The assay generates a histogram showing count of cells by amount of DNA, which is an indicator of place in the cell cycle. This rapid assay detects relative changes in the cell cycle upon drug treatment upon comparison vehicle-treated and single-agent controls for detection of combinatorial interactions. See, Table 4.
For orientation: Flow cytometry measures light scatter and fluorescence of single cells or particles in a stream.

Assay [2] addresses T1, WEE1. In words: in vitro enzymatic inhibitory activity, WEE1 kinase, 10-dose IC50 mode. The following applies: 10 μM ATP. The class given is biochemical. As for the experimental part:
Compounds were tested against two kinases.
Data includes raw data, % Enzyme activity (relative to DMSO controls) and curve fits.

T1 sequence (P30291 whole entry): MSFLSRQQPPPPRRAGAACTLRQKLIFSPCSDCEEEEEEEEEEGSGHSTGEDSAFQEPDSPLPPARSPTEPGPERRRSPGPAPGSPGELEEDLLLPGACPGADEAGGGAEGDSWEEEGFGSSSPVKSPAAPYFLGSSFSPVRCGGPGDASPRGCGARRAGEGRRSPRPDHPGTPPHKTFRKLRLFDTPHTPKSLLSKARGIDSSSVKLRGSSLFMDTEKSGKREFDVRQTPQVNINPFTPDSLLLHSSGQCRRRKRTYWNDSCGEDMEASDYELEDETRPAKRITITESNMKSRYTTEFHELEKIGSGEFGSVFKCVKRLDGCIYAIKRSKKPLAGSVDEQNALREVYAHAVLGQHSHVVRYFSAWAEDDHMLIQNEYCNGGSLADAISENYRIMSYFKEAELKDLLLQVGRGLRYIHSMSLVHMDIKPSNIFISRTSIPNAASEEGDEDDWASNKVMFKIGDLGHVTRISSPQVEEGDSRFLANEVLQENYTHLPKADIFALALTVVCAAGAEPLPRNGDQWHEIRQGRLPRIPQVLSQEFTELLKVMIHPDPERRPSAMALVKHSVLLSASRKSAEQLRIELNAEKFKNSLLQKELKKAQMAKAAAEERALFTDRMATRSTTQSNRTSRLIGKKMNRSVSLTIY

For `CN1CCN(c2ccc(Nc3ncc4c(=O)n(-c5c(Cl)cccc5Cl)cc(Br)c4n3)cc2)CC1` [Compound P21, 8-bromo-6-(2,6-dichlorophenyl)-2-[4-(4-methylpiperazin-1-yl)anilino]pyrido[4,3-d]pyrimidin-5-one], at WEE1 [1], the WEE1 Guava MEC Guava MEC was found to be 0.625 µM; the “WEE1 Guava MEC with 20 nM GEM” value was 0.313 and 0.625.

Turning to `Cc1cccc(F)c1-n1cc(Br)c2nc(Nc3cnn(C4CCNCC4)c3)ncc2c1=O` [Compound P25, 8-bromo-6-(2-fluoro-6-methyl-phenyl)-2-[[1-(4-piperidyl)pyrazol-4-yl]amino]pyrido[4,3-d]pyrimidin-5-one], on WEE1 [1], the WEE1 Guava MEC Guava MEC amounted to 5 µM and the “WEE1 Guava MEC with 20 nM GEM” value was found to be 0.625.

For the compound `CN(C)C1CCc2ccc(Nc3ncc4c(=O)n(-c5c(Cl)cccc5Cl)cc(Br)c4n3)cc21` (centres unmarked) [Compound P22, 8-bromo-6-(2,6-dichlorophenyl)-2-[[3-(dimethylamino)indan-5-yl]amino]pyrido[4,3-d]pyrimidin-5-one], at WEE1 [1], the WEE1 Guava MEC Guava MEC is 2.5 µM and the “WEE1 Guava MEC with 20 nM GEM” value was found to be 1.25.

Turning to `Cc1ccc(Cl)c(-n2cc(Br)c3nc(Nc4cnn(C5CCN(C)CC5)c4)ncc3c2=O)c1Cl` [Compound P15, 8-bromo-6-(2,6-dichloro-3-methyl-phenyl)-2-[[1-(1-methyl-4-piperidyl)pyrazol-4-yl]amino]pyrido[4,3-d]pyrimidin-5-one], on WEE1 [1], the WEE1 Guava MEC Guava MEC worked out at 5 µM and the “WEE1 Guava MEC with 20 nM GEM” value was determined as 1.25.

Regarding `Cc1cccc(F)c1-n1cc(Br)c2nc(Nc3cnn(C4CCN(C)CC4)c3)ncc2c1=O` [Compound P26, 8-bromo-6-(2-fluoro-6-methyl-phenyl)-2-[[1-(1-methyl-4-piperidyl)pyrazol-4-yl]amino]pyrido[4,3-d]pyrimidin-5-one], on WEE1 [1], the WEE1 Guava MEC Guava MEC came out at 5 µM and the “WEE1 Guava MEC with 20 nM GEM” value is given as 0.625.

For `Cc1cn(-c2c(Cl)cccc2Cl)c(=O)c2cnc(Nc3cnn(C4CCN(C)CC4)c3)nc12` [Compound P2, 6-(2,6-dichlorophenyl)-8-methyl-2-[[1-(1-methyl-4-piperidyl)pyrazol-4-yl]amino]pyrido[4,3-d]pyrimidin-5-one], at WEE1 [1], the WEE1 Guava MEC Guava MEC came to 5 µM and the “WEE1 Guava MEC with 20 nM GEM” value stood at 1.25.

For `Cc1cc(Cl)c(-n2cc(Br)c3nc(Nc4cnn(C5CCN(C)CC5)c4)ncc3c2=O)c(Cl)c1` [Compound P17, 8-bromo-6-(2,6-dichloro-4-methyl-phenyl)-2-[[1-(1-methyl-4-piperidyl)pyrazol-4-yl]amino]pyrido[4,3-d]pyrimidin-5-one], on WEE1 [1], the WEE1 Guava MEC Guava MEC is 2.5 µM and the “WEE1 Guava MEC with 20 nM GEM” value was 0.625.

Regarding `C=C(C)c1cn(-c2c(Cl)cccc2Cl)c(=O)c2cnc(Nc3cnn(C4CCN(C)CC4)c3)nc12` [Compound P7, 6-(2,6-dichlorophenyl)-8-isopropenyl-2-[[1-(1-methyl-4-piperidyl)pyrazol-4-yl]amino]pyrido[4,3-d]pyrimidin-5-one], at WEE1 [1], the WEE1 Guava MEC Guava MEC turned out to be 2.5 µM and the “WEE1 Guava MEC with 20 nM GEM” value worked out at 1.25.

For `CC(C)c1cn(-c2c(Cl)cccc2Cl)c(=O)c2cnc(Nc3cnn(C4CCN(C)CC4)c3)nc12` [Compound P9, 6-(2,6-dichlorophenyl)-8-isopropyl-2-[[1-(1-methyl-4-piperidyl)pyrazol-4-yl]amino]pyrido[4,3-d]pyrimidin-5-one], on WEE1 [1], the WEE1 Guava MEC Guava MEC was determined as 5 µM and the “WEE1 Guava MEC with 20 nM GEM” value is given as 1.25.

Usually IC50 stands for the point on the concentration scale where inhibition reaches its midpoint. A low value points to greater potency in that assay. On to `CN1CCC(n2cc(Nc3ncc4c(=O)n(-c5c(Cl)cccc5Cl)cc(Br)c4n3)cn2)CC1` [Compound P1, 8-bromo-6-(2,6-dichlorophenyl)-2-[[1-(1-methyl-4-piperidyl)pyrazol-4-yl]amino]pyrido[4,3-d]pyrimidin-5-one], for which, at WEE1 [1], the WEE1 Guava MEC Guava MEC came to 0.625 µM and the “WEE1 Guava MEC with 20 nM GEM” value is 0.156. Further, it took 41 nM to reach half-maximal inhibition against WEE1 [2] (IC50).

In the case of `O=c1c2cnc(Nc3ccc4c(c3)CNCC43CC3)nc2c(Br)cn1-c1c(Cl)cccc1Cl` [Compound P19, 8-bromo-6-(2,6-dichlorophenyl)-2-(spiro[2,3-dihydro-1H-isoquinoline-4,1′-cyclopropane]-7-ylamino)pyrido[4,3-d]pyrimidin-5-one], at WEE1 [1], the WEE1 Guava MEC Guava MEC came to 0.313 µM and the “WEE1 Guava MEC with 20 nM GEM” value is 0.156.

On to `CCc1cn(-c2c(Cl)cccc2Cl)c(=O)c2cnc(Nc3cnn(C4CCN(C)CC4)c3)nc12` [Compound P5, 6-(2,6-dichlorophenyl)-8-ethyl-2-((1-(1-methylpiperidin-4-yl)-1H-pyrazol-4-yl)amino)pyrido[4,3-d]pyrimidin-5(6H)-one], for which, at WEE1 [1], the WEE1 Guava MEC Guava MEC is over 5 µM and the “WEE1 Guava MEC with 20 nM GEM” value came to 1.25.

For the compound `Cc1cccc(C)c1-n1cc(Br)c2nc(Nc3cnn(C4CCN(C)CC4)c3)ncc2c1=O` [Compound P27, 8-bromo-6-(2,6-dimethylphenyl)-2-[[1-(1-methyl-4-piperidyl)pyrazol-4-yl]amino]pyrido[4,3-d]pyrimidin-5-one], at WEE1 [1], the WEE1 Guava MEC Guava MEC stood at 1.25 µM and the “WEE1 Guava MEC with 20 nM GEM” value is reported as 0.625.

On to `CN1Cc2cc(Nc3ncc4c(=O)n(-c5c(Cl)cccc5Cl)cc(Br)c4n3)ccc2C2(CC2)C1` [Compound P20, 8-bromo-6-(2,6-dichlorophenyl)-2-[(2-methylspiro[1,3-dihydroisoquinoline-4,1′-cyclopropane]-7-yl)amino]pyrido[4,3-d]pyrimidin-5-one], for which, at WEE1 [1], the WEE1 Guava MEC Guava MEC was 0.313 µM and the “WEE1 Guava MEC with 20 nM GEM” value was determined as 0.156.

`CC(C)c1cn(-c2c(Cl)cccc2Cl)c(=O)c2cnc(Nc3cnn(C4CCNCC4)c3)nc12` [Compound P8, 6-(2,6-dichlorophenyl)-8-isopropyl-2-[[1-(4-piperidyl)pyrazol-4-yl]amino]pyrido[4,3-d]pyrimidin-5-one]: on WEE1 [1], the WEE1 Guava MEC Guava MEC turned out to be 5 µM and the “WEE1 Guava MEC with 20 nM GEM” value is on record as 1.25.

As for `CCc1cn(-c2c(Cl)cccc2Cl)c(=O)c2cnc(Nc3cnn(C4CCNCC4)c3)nc12` [Compound P4, 6-(2,6-dichlorophenyl)-8-ethyl-2-[[1-(4-piperidyl)pyrazol-4-yl]amino]pyrido[4,3-d]pyrimidin-5-one], on WEE1 [1], the WEE1 Guava MEC Guava MEC turned out to be 1.25 µM and the “WEE1 Guava MEC with 20 nM GEM” value is on record as 0.625. The compound further displayed an IC50 against WEE1 [2] of 47 nM.

As to `CN1CCCC(n2cc(Nc3ncc4c(=O)n(-c5c(Cl)cccc5Cl)cc(Br)c4n3)cn2)C1` (centres unmarked) [Compound P12, 8-bromo-6-(2,6-dichlorophenyl)-2-[[1-(1-methyl-3-piperidyl)pyrazol-4-yl]amino]pyrido[4,3-d]pyrimidin-5-one], at WEE1 [1], the WEE1 Guava MEC Guava MEC is over 1.25 µM and the “WEE1 Guava MEC with 20 nM GEM” value is recorded as 0.625.

In the case of `NC1CCc2ccc(Nc3ncc4c(=O)n(-c5c(Cl)cccc5Cl)cc(Br)c4n3)cc21` (centres unmarked) [Compound P23, 2-[(3-aminoindan-5-yl)amino]-8-bromo-6-(2,6-dichlorophenyl)pyrido[4,3-d]pyrimidin-5-one], at WEE1 [1], the WEE1 Guava MEC Guava MEC stood at 5 µM and the “WEE1 Guava MEC with 20 nM GEM” value was found to be 2.5.

As for `O=c1c2cnc(Nc3ccc4c(c3)C(O)CC4)nc2c(Br)cn1-c1c(Cl)cccc1Cl` (centres unmarked) [Compound P24, 8-bromo-6-(2,6-dichlorophenyl)-2-[(3-hydroxyindan-5-yl)amino]pyrido[4,3-d]pyrimidin-5-one], on WEE1 [1], the WEE1 Guava MEC Guava MEC was determined as 5 µM and the “WEE1 Guava MEC with 20 nM GEM” value is 1.25.

Regarding `O=c1c2cnc(Nc3cnn(C4CCCNC4)c3)nc2c(Br)cn1-c1c(Cl)cccc1Cl` (centres unmarked) [Compound P13, 8-bromo-6-(2,6-dichlorophenyl)-2-[[1-(3-piperidyl)pyrazol-4-yl]amino]pyrido[4,3-d]pyrimidin-5-one], on WEE1 [1], the WEE1 Guava MEC Guava MEC came to 0.625 µM and the “WEE1 Guava MEC with 20 nM GEM” value was found to be 0.313.

For `Cc1ccc(Cl)c(-n2cc(Br)c3nc(Nc4cnn(C5CCNCC5)c4)ncc3c2=O)c1Cl` [Compound P14, 8-bromo-6-(2,6-dichloro-3-methyl-phenyl)-2-[[1-(4-piperidyl)pyrazol-4-yl]amino]pyrido[4,3-d]pyrimidin-5-one], on WEE1 [1], the WEE1 Guava MEC Guava MEC was over 5 µM and the “WEE1 Guava MEC with 20 nM GEM” value is recorded as 1.25.

Take `O=c1c2cnc(Nc3cnn(C4CCNCC4)c3)nc2c(C2CC2)cn1-c1c(Cl)cccc1Cl` [Compound P3, 8-cyclopropyl-6-(2,6-dichlorophenyl)-2-[[1-(4-piperidyl)pyrazol-4-yl]amino]pyrido[4,3-d]pyrimidin-5-one]: on WEE1 [1], the WEE1 Guava MEC Guava MEC came out at 2.5 µM and the “WEE1 Guava MEC with 20 nM GEM” value is reported as 0.625.

`Cc1cc(Cl)c(-n2cc(Br)c3nc(Nc4cnn(C5CCNCC5)c4)ncc3c2=O)c(Cl)c1` [Compound P16, 8-bromo-6-(2,6-dichloro-4-methyl-phenyl)-2-[[1-(4-piperidyl)pyrazol-4-yl]amino]pyrido[4,3-d]pyrimidin-5-one]: at WEE1 [1], the WEE1 Guava MEC Guava MEC came out at 2.5 µM and the “WEE1 Guava MEC with 20 nM GEM” value stood at 0.625.

For `C=C(C)c1cn(-c2c(Cl)cccc2Cl)c(=O)c2cnc(Nc3cnn(C4CCNCC4)c3)nc12` [Compound P6, 6-(2,6-dichlorophenyl)-2-((1-(piperidin-4-yl)-1H-pyrazol-4-yl)amino)-8-(prop-1-en-2-yl)pyrido[4,3-d]pyrimidin-5(6H)-one], at WEE1 [1], the WEE1 Guava MEC Guava MEC was 5 µM and the “WEE1 Guava MEC with 20 nM GEM” value was 1.25.
